# From US20110045101A1, “FUNGICIDAL SUBSTITUTED AZOLES” (E.I. Du Pont De Nemours and Company, priority 2009, published 2011)
# Marks after values point to notes of the source that are not given here.
# Legend:
# Assay type in all cases: in vivo
# Conditions in all cases: 100 = 100% disease control
# Botrytis cinerea = experiment: Test C: tomato Botrytis on tomato seedlings, sprayed the day before inoculation, visual disease rating
# In short: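 Disease scored by eye on tomato seedlings inoculated with Botrytis cinerea a day after treatment. Treatment was a run-off spray at 200 ppm (equivalent to 500 g/ha), or 40 ppm where marked, in acetone/water carrying 250 ppm Trem 014.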
# Alternaria solani = experiment: Test D: tomato early blight, sprayed the day before inoculation, visual disease rating
# In short: (§1)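 Ratings reflect a 200 ppm spray (≈500 g/ha) unless marked as 40 ppm. Plants were sprayed to run-off. The spray suspension was acetone/purified water 50/50 containing 250 ppm Trem 014, after first dissolving compound in acetone at 3% of final volume.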
# Septoria nodorum = experiment: Test F: wheat glume blotch on wheat seedlings, sprayed the day before inoculation, visual disease rating
# In short: as §1
# Septoria tritici = experiment: Test G: wheat leaf blotch on wheat seedlings, sprayed the day before inoculation, visual disease rating
# In short: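 Spray to run-off, 200 ppm (≈500 g/ha; starred = 40 ppm), acetone/water 50/50 + 250 ppm Trem® 014. Spore inoculation +1 d. 24° C saturated 48 h → 20° C 19 d. Visual rating.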
# [1] = test system: Puccinia recondita f. sp. tritici; experiment: Test H: wheat leaf rust, test suspension sprayed after inoculation of wheat seedlings, visual disease rating
# In short: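 Wheat seedlings inoculated with P. recondita spores, held 24 h saturated at 20 °C, then 2 days in growth chamber at 20 °C; compound suspension (acetone/water with Trem 014) sprayed to run-off afterwards. Rated visually; 200 ppm (≈500 g/ha) unless marked *, which denotes 40 ppm.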
# [2] = test system: Puccinia recondita f. sp. tritici; experiment: Test I: wheat leaf rust on wheat seedlings, sprayed the day before inoculation, visual disease rating
# In short: as §1
# [3] = test system: Erysiphe graminis f. sp. tritici; experiment: Test J: wheat powdery mildew on wheat seedlings, sprayed the day before inoculation, visual disease rating
# In short: as §1
# [4] = 200 ppm, 0 = no control relative to controls
Compound,Test C disease control rating (Botrytis cinerea; [4]),Test D disease control rating (Alternaria solani; [4]),Test F disease control rating (Septoria nodorum; [4]),Test G disease control rating (Septoria tritici; [4]),"Test H disease control rating [1, 4]","Test I disease control rating [2, 4]","Test J disease control rating [3, 4]",other results
COc1cc(F)c(-c2c(Br)nc(Br)n2-c2ccc(C)nc2)c(F)c1 [compound 554],100%,100%,100%,99%,100%,100%,100%,–
COc1nc(Cl)ccc1-n1c(Cl)nc(Cl)c1-c1c(F)cccc1F [compound 619],99%,53%,0%,96%,51%,98%,99%,–
Cc1nc(Cl)n(-c2ccc(F)cc2Cl)c1-c1ccc(Cl)c(F)c1 [compound 573],100%,100%,0%,96%,22%,100%,99%,–
Cc1nc(Br)c(Cc2c(F)cc(F)cc2F)n1-c1ccc(Cl)cc1 [compound 532],97%,0%,0%,99%,0%,99%,91%,–
COc1cc(F)c(-c2c(-c3ccc(I)cc3)c(OC)nn2C)c(F)c1 [compound 431],9%,9%,0%,98%,9%,0%,0%,–
COc1cc(F)c(-c2c(C)nnn2-c2ccc(Cl)cc2)c(F)c1 [compound 628],99%,100%,0%,100%,0%,99%,99%,–
Cc1nc(C)n(-c2ccc(F)cc2Cl)c1-c1ccc(Cl)c(F)c1 [compound 543],–,–,–,–,–,–,–,Test C disease control rating (Botrytis cinerea; 40 ppm (marked *)): 99* %; Test D disease control rating (Alternaria solani; 40 ppm (marked *)): 60* %; Test F disease control rating (Septoria nodorum; 40 ppm (marked *)): 0* %; Test G disease control rating (Septoria tritici; 40 ppm (marked *)): 97* %; Test H disease control rating ([1]; 40 ppm (marked *)): 0* %; Test I disease control rating ([2]; 40 ppm (marked *)): 95* %; Test J disease control rating ([3]; 40 ppm (marked *)): 0* %
"COc1cc(F)c(-c2c(Cl)nc(CF)n2-c2ccc(F)cc2)c(F)c1 [Compound 331, 4-chloro-5-(2,6-difluoro-4-methoxyphenyl)-2-(fluoromethyl)-1-(4-fluorophenyl)-1H-imidazole]",–,–,–,–,–,–,–,"pest or weed control at 200 ppm (Botrytis cinerea; Botrytis cinerea, 120 h, 200 ppm, 0 = no control relative to controls): 100%; pest or weed control at 200 ppm (Alternaria solani; Alternaria solani, 168 h, 200 ppm, 0 = no control relative to controls): 100%; pest or weed control at 200 ppm (Septoria nodorum; Parastagonospora nodorum, 264 h, 200 ppm, 0 = no control relative to controls): 99%; pest or weed control at 200 ppm (Septoria tritici; Zymoseptoria tritici, 504 h, 200 ppm, 0 = no control relative to controls): 95%; pest or weed control at 200 ppm ([1]; Puccinia recondita, 96 h, 200 ppm, 0 = no control relative to controls): 85%; pest or weed control at 200 ppm ([2]; Puccinia recondita, 168 h, 200 ppm, 0 = no control relative to controls): 100%; pest or weed control at 200 ppm ([3]; Blumeria graminis, 168 h, 200 ppm, 0 = no control relative to controls): 100%"
Cc1nc(Cl)c(-c2ccc(Cl)cc2)n1-c1c(F)cc([N+](=O)[O-])cc1F [compound 708],100%,0%,82%,99%,7%,80%,89%,–
COc1cc(F)c(-c2c(Br)nc(Cl)n2-c2ccc(C(F)(F)F)nc2)c(F)c1 [compound 706],57%,100%,0%,99%,25%,86%,100%,–
COc1cc(F)c(-c2c(Cl)nc(Cl)n2-c2ccc(C)cc2)c(F)c1Cl [compound 405],99%,98%,0%,100%,0%,98%,99%,–
COc1ccc(-n2c(Cl)nc(C)c2-c2c(F)cccc2F)cn1 [compound 718],100%,100%,97%,100%,99%,100%,100%,–
COc1cc(F)c(-c2c(Cl)nc(Cl)n2Cc2ccc(Cl)nc2)c(F)c1 [compound 667],100%,100%,100%,99%,8%,97%,76%,–
COc1cc(F)c(-c2c(Cl)nc(Cl)n2-c2ccc(NC(C)=O)nc2)c(F)c1 [compound 673],99%,100%,99%,99%,9%,100%,90%,–
COc1cc(OC)cc(-n2c(C)nc(Br)c2Cc2c(F)cc(F)cc2F)c1 [compound 535],0%,0%,0%,2%,0%,0%,0%,–
Cc1nc(Cl)n(-c2ccc(Cl)c(F)c2)c1-c1ccc(Br)cn1 [compound 358],99%,0%,0%,90%,0%,41%,0%,–
Cc1nc(Cl)c(-c2ccc(Cl)cc2)n1Cc1cccc(Cl)c1 [compound 295],–,–,–,–,–,–,–,"Test C disease control rating (Botrytis cinerea; 200 ppm, 0 = no control): 99%; Test D disease control rating (Alternaria solani; 200 ppm, 0 = no control): 0%; Test F disease control rating (Septoria nodorum; 200 ppm, 0 = no control): 0%; Test G disease control rating (Septoria tritici; 200 ppm, 0 = no control): 94%; Test H disease control rating ([1]; 200 ppm, 0 = no control): 0%; Test I disease control rating ([2]; 200 ppm, 0 = no control): 80%; Test J disease control rating ([3]; 200 ppm, 0 = no control): 0%"
Fc1ccc(-n2cnc(Br)c2-c2c(F)cc(F)cc2F)cc1 [compound 507],100%,95%,0%,88%,0%,100%,98%,–
